Reference: the supplement of paper PMC10307832

Experiments:
Experiment in all cases: relative viability (nuclei count vs DMSO), 5 days (fraction); higher = more cells survive
[1] = compound: C[C@H]([C@@H](C(=O)N)NC(=O)[C@@H]1CSSC[C@@H](C(=O)N[C@H](C(=O)N[C@@H](C(=O)N[C@H](C(=O)N1)CCCCN)CC2=CNC3=CC=CC=C32)CC4=CC=C(C=C4)O)NC(=O)[C@@H](CC5=CC=CC=C5)N)O [CAP-232] + Cc1nc(Nc2ncc(C(=O)Nc3c(C)cccc3Cl)s2)cc(N2CCN(CCO)CC2)n1 [Dasatinib] (partner 0.075 µM)
Outline: (§1)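 Each reported value is a median over duplicate plates. It expresses relative viability: treated-well nuclei count divided by vehicle-well nuclei count. Lung cancer cell lines in 1536-well plates were dosed by pin tool a day after seeding, alone with one drug or with a fixed anchor-drug dose plus five library-drug doses (not always all listed) in √10 steps, and nuclei were counted after 5 days.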

[2] = compound: C[C@H]([C@@H](C(=O)N)NC(=O)[C@@H]1CSSC[C@@H](C(=O)N[C@H](C(=O)N[C@@H](C(=O)N[C@H](C(=O)N1)CCCCN)CC2=CNC3=CC=CC=C32)CC4=CC=C(C=C4)O)NC(=O)[C@@H](CC5=CC=CC=C5)N)O [CAP-232] + O=C(CCCCCCC(=O)Nc1ccccc1)NO [Vorinostat] (partner 1 µM)
Outline: as §1

[3] = compound: C[C@H]([C@@H](C(=O)N)NC(=O)[C@@H]1CSSC[C@@H](C(=O)N[C@H](C(=O)N[C@@H](C(=O)N[C@H](C(=O)N1)CCCCN)CC2=CNC3=CC=CC=C32)CC4=CC=C(C=C4)O)NC(=O)[C@@H](CC5=CC=CC=C5)N)O [CAP-232] + O=C(c1cc(Cc2n[nH]c(=O)c3ccccc23)ccc1F)N1CCN(C(=O)C2CC2)CC1 [Olaparib] (partner 8 µM)
Outline: as §1

[4] = compound: C[C@H]([C@@H](C(=O)N)NC(=O)[C@@H]1CSSC[C@@H](C(=O)N[C@H](C(=O)N[C@@H](C(=O)N[C@H](C(=O)N1)CCCCN)CC2=CNC3=CC=CC=C32)CC4=CC=C(C=C4)O)NC(=O)[C@@H](CC5=CC=CC=C5)N)O [CAP-232] + Cc1cc(Nc2cc(N3CCN(C)CC3)nc(Sc3ccc(NC(=O)C4CC4)cc3)n2)n[nH]1 [Tozasertib] (partner 0.1 µM)
Outline: as §1

[5] = compound: C[C@H]([C@@H](C(=O)N)NC(=O)[C@@H]1CSSC[C@@H](C(=O)N[C@H](C(=O)N[C@@H](C(=O)N[C@H](C(=O)N1)CCCCN)CC2=CNC3=CC=CC=C32)CC4=CC=C(C=C4)O)NC(=O)[C@@H](CC5=CC=CC=C5)N)O [CAP-232] + C[C@]1(O)C[C@@H](c2nc(-c3ccc4ccc(-c5ccccc5)nc4c3)c3c(N)nccn32)C1 [Linsitinib] (partner 1 µM)
Outline: as §1

Cell Line	relative viability ([1]; first compound 0.4 µM)	relative viability ([1]; first compound 1.265 µM)	relative viability ([1]; first compound 4 µM)	relative viability ([1]; first compound 12.65 µM)	relative viability ([2]; first compound 0.4 µM)	relative viability ([2]; first compound 1.265 µM)	relative viability ([2]; first compound 4 µM)	relative viability ([2]; first compound 12.65 µM)	relative viability ([3]; first compound 0.4 µM)	relative viability ([3]; first compound 1.265 µM)	relative viability ([3]; first compound 4 µM)	relative viability ([3]; first compound 12.65 µM)	relative viability ([4]; first compound 0.4 µM)	relative viability ([4]; first compound 1.265 µM)	relative viability ([4]; first compound 4 µM)	relative viability ([4]; first compound 12.65 µM)	relative viability ([5]; first compound 0.4 µM)	relative viability ([5]; first compound 1.265 µM)	relative viability ([5]; first compound 4 µM)	relative viability ([5]; first compound 12.65 µM)
NCI-H460	0.704	0.478	0.581	0.419	1.01	0.865	1.1	0.363	0.515	0.384	0.526	0.332	0.487	0.463	0.634	0.396	0.89	0.865	0.986	0.44
NCI-H520	0.189	0.193	0.251	0.201	0.71	0.695	0.75	0.577	0.349	0.304	0.321	0.303	0.439	0.405	0.395	0.354	1.06	0.969	1.04	0.563
NCI-H596	0.502	0.615	0.536	0.615	0.666	0.613	0.582	0.53	0.713	0.612	0.583	0.641	0.962	1.04	0.886	0.821	1.05	1.05	1.14	1.06
NCI-H647	0.259	0.155	0.179	0.125	0.541	0.593	0.602	0.414	0.699	0.7	0.635	0.373	0.216	0.259	0.269	0.276	1.09	1.13	1.5	0.851
NCI-H650	0.509	0.426	0.521	0.417	0.505	0.423	0.364	0.457	0.434	0.427	0.341	0.361	0.749	0.747	0.713	0.7	1.12	0.808	0.872	0.846
NCI-H661	0.971	0.663	0.96	0.648	0.848	0.848	0.875	0.752	0.768	0.771	0.8	0.683	0.367	0.372	0.347	0.329	0.488	0.659	0.575	0.462
NCI-H727	0.301	0.362	0.38	0.335	1.19	1.08	1.39	1.23	0.705	0.613	0.757	0.648	0.491	0.525	0.698	0.499	–	0.346	0.316	0.245
